In patent publication EP0318860B1, “Substituted alkylamine derivatives” (BANYU PHARMACEUTICAL CO., LTD., priority 1987, dated 1989):
Values after ≈ are worked out from the molar mass of the structure shown. Counter-ions that a name gives are not always drawn. Like-named read-outs stand apart in the source and are kept apart here.

Key:
rat squalene epoxidase = target: T1, rat squalene epoxidase (Rattus norvegicus, UniProt P52020); test: Squalene epoxidase inhibiting activity (3H-squalene to squalene-2,3-epoxide, solubilized liver microsome fraction); format: biochemical; conditions: 8 µM 3H-squalene, 37 °C, 30 minutes, read-out: 50 % inhibitory concentration (IC50)
T1 construct: Livers were extracted and homogenized; from tissue; host or cells: liver of SD-strain female rats; microsomes solubilized with 2 % Triton X-100, 105000 x g supernatant
Experimental: The rat squalene epoxidase was prepared by the method described in J. Biol. Chem., vol.
SD-strain female rats were killed by exsanguination. Livers were extracted and homogenized with in the presence of 2 volumes of 0.1M Tris-HCl buffer (pH 7.5). The homogenate was centrifuged at 9750 Xg for 10 minutes. The supernatant fraction was further centrifuged at 105000 Xg for 1 hour. The sediment was washed with 0.1M Tris-HCl buffer (pH 7.5), and then centrifuged at 105000 Xg for 1 hour. The microsomes obtained were suspended in 0.1M Tris-HCl buffer (pH 7.5) so that the amount of proteins was 40 mg/ml, and under ice cooling, the suspension was stirred in the presence of 2 % Triton X-100 to solubilize the enzyme. After the solubilization, the solution was diluted to a Triton X-100 concentration of 0.5 % with 1 mM EDTA and 1 mM dithiothreitol, and centrifuged at 105000 Xg for 1 hour. The resulting supernatant fraction was used in the following test as a squalene epoxidase fraction.
The squalene epoxidase activity was assayed in accordance with the method described in J. Biol. Chem., vol.
Three microliters of a dimethyl sulfoxide solution of a test drug was added to a solution composed of 0.2 ml of the squalene epoxidase fraction prepared in (1) [proteins 0.4 mg, 0.5 % Triton X-100, […] Tris-HCl buffer (pH 7.5)], 100 µM FAD, 1 mM NADPH, 1 mM EDTA and 8 µM ³H-squalene-Tween 80 emulsion to adjust the total amount of the solution to 0.3 ml. The solution was incubated at 37 °C for 30 minutes with shaking. Then, 0.3 ml of a 10 % methanolic potassium hydroxide was added to stop the reaction, and the reaction mixture was left to stand at room temperature for 1 hour. The non-saponified material was extracted with petroleum ether, and the solvent was evaporated under a nitrogen stream. […] The position of the resulting ³H-squalene-2,3-epoxide on TLC was determined using ergosterol acetate as a marker, and the ³H-squalene-2,3-epoxide portion on the TLC was cut off. The TLC strip was immersed in a toluene-type scintillator, and measured by a liquid scintillation counter.

Candida albicans = test: Antimycotic activity test (Sabouraud's agar dilution, MIC); format: cell-based; conditions: 48 h
Experimental: (§1) Each of the test fungi was cultured (Candida albicans was cultured overnight in Sabouraud broth; Trichophyton was inoculated in Sabouraud's agar and cultured for 2 days, after which the spores were harvested). Thereafter, one platinum loopful of Candida albicans or Trichophyton (10⁶ cells/ml for C. albicans; 10⁶ spores/ml for Trichophyton) was inoculated in Sabouraud's agar containing the test drug in various concentrations, and cultured (at 37 °C for 2 days for C. albicans; at 28 °C for 5 days for Trichophyton). Then, the minimum growth inhibition concentration (MIC) was measured. […]

Trichophyton = test: as above; format: cell-based; conditions: 120 h
Experimental: as §1

[1] = tested on: cholesterol biosynthesis in the cultured Hep-G2 cells; test: Inhibitory activity on cholesterol biosynthesis in cultured cells ([14C] acetate incorporation); format: cell-based; conditions: HepG2; Human hepatoma (Hep-G2) cells, [14C] sodium acetate, 6 hours; read-out: 50% inhibitory concentration (IC₅₀)
Experimental: Human hepatoma (Hep-G2) cells were cultured in 10 cm² dishes until they formed a monolayer. One milliliter of the culture medium was replaced, and 1 µCi of [¹⁴C] sodium acetate and 1 microliter of a dimethyl sulfoxide solution of a test drug were added, and the cells were cultured at 37 °C in air containing 5 % of carbon dioxide for 6 hours.
After the cultivation, the medium was aspirated, and the cells were cooled with ice, and washed with Dulbecco's phosphate buffered saline solution. The resulting cells were scraped by a rubber policeman, and collected by centrifugation. The cells collected were dissolved in 400 microliters of 0.3N sodium hydroxide. A 200 microliters aliquot of the solution was used for extraction, and the remainder, for protein determination.
To 200 microliters of the extracted cells, 15 % ethanolic potassium hydroxide was added, and saponification was carried out at 75 °C for 1 hour. Water (1 ml) was then added, and the mixture was extracted with 2 ml of petroleum ether twice to remove non-saponified materials. The petroleum ether extracts were washed with 1 ml of water, and evaporated under a nitrogen stream. The residue was spotted on a pre-coated silica gel TLC plate using a small amount of chloroform, and developed with hexane/ethyl ether/acetic acid (85:15:4). Cholesterol and squalene portions on the TLC were detected with iodine, and the corresponding TLC portions were cut out. The TLC strips were immersed in a toluene-type scintillator, and radioactivity was counted by a liquid scintillation counter. The results were corrected by the amount of proteins measured by the method described in J. Biol. Chem., vol. 193, page 265, 1951. The 50 % inhibitory concentration (IC₅₀ value) of the compound of the invention on cholesterol biosynthesis in the cultured Hep-G2 cells was calculated.

cholesterol biosynthesis = test: Test on inhibition of cholesterol biosynthesis in vivo ([14C] acetate, plasma 14C-cholesterol); conditions: male SD rats, 100 mg/kg orally; for ¹⁴C-cholesterol: dpm of 14C-cholesterol present in 1 ml of the plasma; for Inhibition of cholesterol biosynthesis: test group compared with control group
Experimental: Male SD rats, 5 weeks of age, were used in the in vivo test. The rats were kept for 9 days in an environment of reversed light cycle (i.e., dark between 6:00 am and 6:00 pm). The rats were allowed to take a solid diet and water freely. The test drug was orally administered two hours before dark sixth hour when the cholesterol synthesis reached a maximum. Compounds 6 and 44 were administered as a suspension in a 0.5 % aqueous solution of methyl cellulose. Compound 45 was administered in a 0.5 % aqueous solution of methyl cellulose containing 5 % of dimethyl sulfoxide and 1 % Tween 80. The dose was 1 ml/100 g of body weight.
An equal volume of 0.5 % methyl cellulose was administered to a control group. One hour after administration of the test drug, [¹⁴C] sodium acetate (56 mCi/mmole) was intraperitoneally administered to the rats in a dose of 20 µCi/100 g of body weight. At dark sixth hour, a blood sample was obtained from the abdominal artery under ether anesthesia, and the plasma was separated by centrifugation.
Two milliliters of plasma was mixed with a 15 % methanolic potassium hydroxide and saponified by heating at 75 °C for 3 hours. The resulting sample was extracted with 2 ml of petroleum ether twice. The extracts were washed with 2 ml of distilled water, and finally evaporated under a nitrogen stream. The resulting residue was dissolved in a small amount of ethyl ether, and all the solution was spotted on a pre-coated silica gel TLC plate. The plate was developed with a solvent system composed of hexane/ethyl ether/acetic acid (85:15:4). Color formation was carried out by iodine, and the radioactivity of the cholesterol portion was measured by a liquid scintillation counter.
The results were expressed in dpm of the resulting ¹⁴C-cholesterol present in 1 ml of the plasma. The inhibition of cholesterol biosynthesis was calculated by comparing the amounts of ¹⁴C-cholesterol biosynthesized in the test group and that in the control group.

[2] = C. albicans, 37 °C for 2 days, read-out: MIC
[3] = 28 °C for 5 days, read-out: MIC

T1 sequence (P52020 whole entry): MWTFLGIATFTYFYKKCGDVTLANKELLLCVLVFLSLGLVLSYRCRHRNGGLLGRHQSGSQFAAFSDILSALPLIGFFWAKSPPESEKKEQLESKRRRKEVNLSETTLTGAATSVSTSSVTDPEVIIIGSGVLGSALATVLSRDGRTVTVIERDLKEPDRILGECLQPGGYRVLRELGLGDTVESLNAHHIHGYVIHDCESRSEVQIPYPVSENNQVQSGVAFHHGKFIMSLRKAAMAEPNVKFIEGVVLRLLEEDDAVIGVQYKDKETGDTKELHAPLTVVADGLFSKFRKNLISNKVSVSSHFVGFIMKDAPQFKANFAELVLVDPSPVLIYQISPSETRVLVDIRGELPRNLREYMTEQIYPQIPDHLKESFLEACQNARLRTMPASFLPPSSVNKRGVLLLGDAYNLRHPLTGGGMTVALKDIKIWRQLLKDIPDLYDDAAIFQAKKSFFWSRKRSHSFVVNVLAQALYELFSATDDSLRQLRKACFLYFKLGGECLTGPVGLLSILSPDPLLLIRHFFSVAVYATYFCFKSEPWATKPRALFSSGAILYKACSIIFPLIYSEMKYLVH

Compound	IC50 (rat squalene epoxidase)	MIC (Candida albicans; [2])	MIC (Trichophyton; [3])	IC50 [1]	¹⁴C-cholesterol (cholesterol biosynthesis)	Inhibition of cholesterol biosynthesis (cholesterol biosynthesis)	MIC (Candida albicans)	MIC (Trichophyton)
CC(C)=CCOc1cccc(CN(C)C/C=C/C#CC(C)(C)C)c1 [Compound 61, (E)-N-(6,6-dimethyl-2-hepten-4-ynyl)-N-methyl-3-(3-methyl-2-butenyloxy)benzylamine]	6100 nM	> 100 µg/mL	> 100 µg/mL	–	–	–	–	–
CN(C/C=C/C#CC(C)(C)C)Cc1cccc(/C=C/c2ccccc2)c1.Cl [Compound 97, N-[(E)-6,6-dimethyl-2-hepten-4-ynyl]-N-methyl-3-[(E)-styryl]benzylamine hydrochloride]	320 nM	> 100 µg/mL	> 100 µg/mL	–	–	–	–	–
CCN(C/C=C/C#CC(C)(C)C)Cc1cccc(OCc2ccccc2C)c1.Cl [Compound 44, (E)-N-(6,6-dimethyl-2-hepten-4-ynyl)-N-ethyl-3-(2-methylbenzyloxy)benzylamine hydrochloride]	160 nM	–	–	50 nM	568±313 dpm	69%	–	–
CN(C/C=C/C#CC(C)(C)C)Cc1cccc2ccccc12 [terbinafine, reference compound]	> 100000 nM	–	–	–	–	–	0.3 µg/mL (≈ 1.03 µM)	< 0.01 µg/mL
Cc1ccccc1COc1cccc(CN(C)C/C=C/C#CC(C)(C)C)c1.Cl [Compound 6, (E)-N-(6,6-dimethyl-2-hepten-4-ynyl)-N-methyl-3-(2-methylbenzyloxy)benzylamine hydrochloride]	560 nM	–	–	340 nM	862±387 dpm	53%	–	–
CN(C/C=C/C#CC(C)(C)C)Cc1cccc(OCc2cccc3ccccc23)c1 [Compound 18, (E)-N-(6,6-dimethyl-2-hepten-4-ynyl)-N-methyl-3-(1-naphthylmethyloxy)benzylamine]	250 nM	> 100 µg/mL	> 100 µg/mL	–	–	–	–	–
CN(C/C=C/C#CC(C)(C)C)Cc1cccc(OCc2cccc(-c3cnco3)c2)c1 [Compound 78, (E)-N-(6,6-dimethyl-2-hepten-4-ynyl)-N-methyl-3-[3-(5-oxazolyl)benzyloxy]benzylamine]	63 nM	–	–	20 nM	–	–	–	–
CCCN(C/C=C/C#CC(C)(C)C)Cc1cccc(OCc2ccccc2)c1 [Compound 37, (E)-N-(6,6-dimethyl-2-hepten-4-ynyl)-N-propyl-3-benzyloxybenzylamine]	270 nM	–	–	85 nM	–	–	–	–
CN(C/C=C/C#CC(C)(C)C)Cc1cccc(OCc2cccc(C#N)c2)c1.Cl [Compound 64, (E)-N-(6,6-dimethyl-2-hepten-4-ynyl)-N-methyl-3-(3-cyanobenzyloxy)benzylamine hydrochloride]	510 nM	> 100 µg/mL	> 100 µg/mL	120 nM	–	–	–	–
CN(C/C=C/C#CC(C)(C)C)Cc1cc(OCc2ccccc2)ccn1.Cl.Cl [Compound 110, (E)-N-(6,6-dimethyl-2-hepten-4-ynyl)-N-methyl-4-benzyloxy-2-pyridylmethylamine dihydrochloride]	1500 nM	> 100 µg/mL	> 100 µg/mL	–	–	–	–	–
CCN(C/C=C/C#CC(C)(C)C)Cc1cccc(OCc2ccccc2)c1 [Compound 36, (E)-N-(6,6-dimethyl-2-hepten-4-ynyl)-N-ethyl-3-benzyloxybenzylamine hydrochloride]	300 nM	–	–	64 nM	–	–	–	–
CN(C/C=C/C#CC(C)(C)C)Cc1cccc(OCc2ccccc2)c1.Cl [Compound 2, (E)-N-(6,6-dimethyl-2-hepten-4-ynyl)-N-methyl-3-benzyloxybenzylamine hydrochloride]	1400 nM	> 100 µg/mL	> 100 µg/mL	1500 nM	–	–	–	–
CCCN(C/C=C/C#CC(C)(C)C)Cc1cccc(OCc2cccc(C#N)c2)c1 [Compound 47, (E)-N-(6,6-dimethyl-2-hepten-4-ynyl)-N-propyl-3-(3-cyanobenzyloxy)benzylamine hydrochloride]	150 nM	–	–	90 nM	–	–	–	–
Cc1ccccc1CNc1cccc(CN(C)C/C=C/C#CC(C)(C)C)c1 [Compound 103, (E)-N-(6,6-dimethyl-2-hepten-4-ynyl)-N-methyl-3-(2-methylbenzylamino)benzylamine hydrochloride]	360 nM	–	–	450 nM	–	–	–	–
CN(C/C=C/C#CC(C)(C)C)Cc1cccc(CCc2ccccc2)c1 [Compound 107, (E)-N-(6,6-dimethyl-2-hepten-4-ynyl)-N-methyl-3-(beta-phenethyl)benzylamine]	3600 nM	> 100 µg/mL	> 100 µg/mL	–	–	–	–	–
CCCN(C/C=C/C#CC(C)(C)C)Cc1cccc(OCc2ccccc2C)c1.Cl [Compound 45, (E)-N-(6,6-dimethyl-2-hepten-4-ynyl)-N-propyl-3-(2-methylbenzyloxy)benzylamine hydrochloride]	120 nM	> 100 µg/mL	> 100 µg/mL	83 nM	274±155 dpm	85%	–	–
CCN(C/C=C/C#CC(C)(C)C)Cc1cccc(OCc2cccc(C#N)c2)c1 [Compound 46, (E)-N-(6,6-dimethyl-2-hepten-4-ynyl)-N-ethyl-3-(3-cyanobenzyloxy)benzylamine]	150 nM	–	–	110 nM	–	–	–	–
CN(C/C=C/C#CC(C)(C)C)Cc1cccc(OCc2cccc(-c3cncs3)c2)c1 [Compound 79, (E)-N-(6,6-dimethyl-2-hepten-4-ynyl)-N-methyl-3-[3-(5-thiazolyl)benzyloxy]benzylamine]	89 nM	–	–	23 nM	–	–	–	–
